Values after ≈ are worked out from the molar mass of the structure shown.
Key:
Human GLP-1R = biological target: T1, Human GLP-1R (Homo sapiens, UniProt P43220); assay: GLP-1R agonistic activity, HTRF cAMP assay in 293A GFP-GLP-1R cells; assay type: cell-based; conditions: cAMP pathway
T1 construct: expressed in transfected cells; host or cells: 293A cells stably expressing GLP-1R-GFP
Excerpt: The method was a competitive immunoassay.

[1] = Hygroscopicity by dynamic vapor sorption (DVS) at 25°C; assay type: physicochemical
[2] = High-humidity stability at 90% RH (HPLC purity, crystal form); assay type: physicochemical; conditions: for Purity (% Area) / purity decrease: 90% RH
Excerpt: [table] […] Table E-5: Results of High-Humidity Stability Determination

[3] = Pressure stability at 1000 Mpa for 5 minutes (HPLC purity, crystal form); assay type: physicochemical
Excerpt: [table] […] Table E-6: Results of Pressure Stability Determination

[4] = High-temperature stability at 60°C (HPLC purity, crystal form); assay type: physicochemical; conditions: for Purity (% Area) / purity decrease: 60°C
Excerpt: [table] […] Table E-4: Results of High-Temperature Stability Determination

[5] = Crystal form stability on drying or sealed storage; assay type: physicochemical; conditions: dried at 50°C for 3 hours
Excerpt: The 4 metastable crystal forms described in Example 4 had lower crystal form stability than each crystal form described in Example 3.

[6] = Equilibrium solubility, 24 hours at 37°C in 4 media, with XRPD of residual solid; assay type: physicochemical; conditions: for Crystal Form: XRPD
Procedure: After 24 hours, samples were taken and centrifuged for separation. The obtained solids were tested by XRPD, and the supernatants were filtered for solubility testing.

[7] = Solid-state stability under long-term and accelerated conditions (HPLC purity, crystal form); assay type: physicochemical; conditions: for Purity (% Area) / purity decrease: 10 days
Excerpt: [table] […] Table E-3: Results of Solid-State Stability Determination

[8] = Suspension competition test of Crystal Form A and Crystal Form G; assay type: physicochemical; conditions: Crystal Form A and Crystal Form G in EtOH and a mixture of MeOH and water, room temperature and 50°C

T1 sequence (P43220 24-463): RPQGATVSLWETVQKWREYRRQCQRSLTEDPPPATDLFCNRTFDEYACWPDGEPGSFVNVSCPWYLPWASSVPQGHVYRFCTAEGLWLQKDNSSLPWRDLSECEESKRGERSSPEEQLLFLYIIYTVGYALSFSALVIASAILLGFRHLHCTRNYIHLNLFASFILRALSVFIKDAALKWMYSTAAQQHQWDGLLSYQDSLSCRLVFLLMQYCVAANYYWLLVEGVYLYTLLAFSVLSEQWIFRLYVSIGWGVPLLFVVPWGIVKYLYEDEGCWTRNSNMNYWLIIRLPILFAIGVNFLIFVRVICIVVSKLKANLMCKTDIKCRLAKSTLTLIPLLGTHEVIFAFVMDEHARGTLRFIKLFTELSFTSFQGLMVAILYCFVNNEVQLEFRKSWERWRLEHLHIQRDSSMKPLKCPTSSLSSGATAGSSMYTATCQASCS

**Q.** For `O=C(O)c1ccc2nc(CN3CCC(c4cccc(OCc5ccc(C6COC6)cc5F)n4)CC3)n(C[C@@H]3CCO3)c2c1` [Compound 1, (S)-2-((4-(6-((2-fluoro-4-(oxetan-3-yl)benzyl)oxy)pyridin-2-yl)piperidin-1-yl)methyl)-1-(oxetan-2-ylmethyl)-1H-benzo[d]imidazole-6-carboxylic acid], which “agonistic effect on GLP-1R” value (Human GLP-1R) is on record?
**A.** strong agonistic effect

**Q.** Which “Sample Weight Change at 80% RH (%)” value [1] does the source give for `O=C(O)c1ccc2nc(CN3CCC(c4cccc(OCc5ccc(C6COC6)cc5F)n4)CC3)n(C[C@@H]3CCO3)c2c1` [Crystal Form G, (S)-2-((4-(6-((2-fluoro-4-(oxetan-3-yl)benzyl)oxy)pyridin-2-yl)piperidin-1-yl)methyl)-1-(oxetan-2-ylmethyl)-1H-benzo[d]imidazole-6-carboxylic acid] here?
**A.** 0.73%

**Q.** What about the “Purity (% Area)” value ([2]; 1 Day) of the same compound?
**A.** 97.67 % Area

**Q.** And the purity decrease ([2]; 1 day)?
**A.** about 0.1%

**Q.** What about the “Purity (% Area)” value ([2]; 10 days) of the same compound?
**A.** 96.53 % Area

**Q.** And the purity decrease ([2]; 10 days)?
**A.** about 1.3%

**Q.** And the “Initial Purity (% Area)” value ([2]; initial, before storage)?
**A.** 97.81 % Area

**Q.** And the “Purity (% Area)” value ([3]; 1000 Mpa, 5 min)?
**A.** 97.65 % Area

**Q.** And the purity decrease ([3]; 1000 Mpa, 5 min)?
**A.** about 0.2%

**Q.** What about the “Initial Purity (% Area)” value ([3]; initial, before pressing) of the same compound?
**A.** 97.81 % Area

**Q.** What about the “Purity (% Area)” value ([4]; 1 day) of the same compound?
**A.** 97.55 % Area

**Q.** And the purity decrease ([4]; 1 day)?
**A.** about 0.3%

**Q.** And the “Purity (% Area)” value ([4]; 10 days)?
**A.** 96.63 % Area

**Q.** And the purity decrease ([4]; 10 days)?
**A.** about 1.2%

**Q.** What about the “Initial Purity (% Area)” value ([4]; initial, before storage) of the same compound?
**A.** 97.81 % Area

**Q.** What about the “crystal form change after drying” value [5] of the same compound?
**A.** no crystal form change is observed

**Q.** And the “Whether the Crystal Form Changed” value ([6]; 24 h in FaSSGF)?
**A.** YES

**Q.** And the “Solubility after 24 h” value ([6]; FaSSGF)?
**A.** <10 µg/mL

**Q.** And the “Solubility after 24 h” value ([6]; FaSSIF)?
**A.** 80 µg/mL (≈ 136 µM)

**Q.** What about the “Solubility after 24 h” value ([6]; FeSSIF) of the same compound?
**A.** 270 µg/mL (≈ 460 µM)

**Q.** What about the “Crystal Form” value ([6]; solid after 24 h in FaSSGF) of the same compound?
**A.** a hydrochloride salt was formed

**Q.** And the “Crystal Form” value ([6]; solid after 24 h in FaSSIF)?
**A.** Crystal Form G

**Q.** And the “Crystal Form” value ([6]; solid after 24 h in FeSSIF)?
**A.** Crystal Form G

**Q.** And the “Crystal Form” value ([6]; solid after 24 h in H2O)?
**A.** Crystal Form G

**Q.** What about the “Purity (% Area)” value ([7]; 25°C/60%RH) of the same compound?
**A.** 97.37 % Area

**Q.** What about the “Purity (% Area)” value ([7]; 40°C/75%RH) of the same compound?
**A.** 97.43 % Area

**Q.** What about the purity decrease ([7]; accelerated conditions (40°C/75% RH)) of the same compound?
**A.** about 0.4%

**Q.** What about the crystal form change ([7]; before and after testing, long-term and accelerated conditions) of the same compound?
**A.** no crystal form change was observed

**Q.** And the “Initial Purity (% Area)” value ([7]; initial, before storage)?
**A.** 97.81 % Area

**Q.** And the purity decrease ([7]; long-term conditions (25°C/60% RH))?
**A.** about 0.4%

**Q.** And the “outcome of suspension competition test” value [8]?
**A.** thermodynamically more stable
